The source of these data is US12391671B2, “Allosteric EGFR inhibitors and methods of use thereof” (Dana-Farber Cancer Institute, Inc., priority 2019, dated 2025).

In assay [1] the test system is EGFR mutant L858R Ba/F3 cells. Briefly: Ba/F3 cell proliferation model (Cell Titer Glo), EGFR L858R. Particulars: 72 hours. Format: cell-based, murine. An excerpt:
Example 26: Ba/F3 Cell Proliferation Models
The EGFR mutant L858R and L858R/T790M Ba/F3 cells have been previously described (Zhou, W., et al. Nature 462, 2009, 1070-1074). All cell lines were maintained in RPM 1640 (Cellgro; Mediatech Inc., Herndon. CA) supplemented with 10% FBS, 100 units/mL penicillin, 100 units/mL streptomycin. The EGFR I941R mutation was introduced via site directed mutagenesis using the Quick Change Site-Directed Mutagenesis kit (Stratagene; La Jolla, CA) according to the manufacturer's instructions. All constructs were confirmed by DNA sequencing. The constructs were shuttled into the retroviral vector JP1540 using the Cre-recombination system (Agilent Technologies, Santa Clara, CA). Ba/F3 cells were then infected with retrovirus per standard protocols, as described previously (Zhou, et al, Nature 2009). Stable clones were obtained by selection in puromycin (2 μg/ml).
Growth and inhibition of growth was assessed by the Cell Titer Glo® assay (Promega, Madison, WI) and was performed according to the manufacturer's instructions. The Cell Titer Glo® assay is a luminescence-based method used to determine the number of viable cells based on quantitation of the ATP present, which is directly proportional to the amount of metabolically active cells present. Ba/F3 cells of different EGFR genotypes were exposed to compounds as a single agent or in combination with 1 μg/mL cetuximab for 72 hours and the number of cells used per experiment was determined empirically as has been previously established (Zhou, et al., Nature 2009). All experimental points were set up in triplicates in 384-well plates and all experiments were repeated at least three times. […] The curves were fitted using a non-linear regression model with a sigmoidal dose response.

The target of the next assay is EGFR L858R/T790M (Homo sapiens (Human), UniProt P00533, L858R/T790M). Briefly: HTRF-based EGFR biochemical assay (L858R/T790M). Particulars: 100 μM ATP, enzyme 0.02 nM. In a few lines: (§1)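 Mutant EGFR (L858R 0.1 nM, L858R/T790M 0.02 nM) preincubated 30 min with compounds at room temperature in HEPES pH 7.0 buffer with Mg2+/Mn2+, then reacted 20 min with 1 μM biotinylated tyrosine kinase peptide and 100 μM ATP. Phosphorylation read by HTRF (Eu-cryptate anti-phosphotyrosine/streptavidin-XL665, 665/620 nm) after EDTA quench.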
For orientation: TR-FRET usually uses a lanthanide donor and a delayed reading to cut background.

The target of the next assay is EGFR L858R (Homo sapiens (Human), UniProt P00533, L858R). Briefly: HTRF-based EGFR biochemical assay (L858R). Particulars: 100 μM ATP, enzyme 0.1 nM. The procedure, abridged:
as §1

Assay [2] relates to EGFR mutant L858R/T790M Ba/F3 cells. The experiment in a line: Ba/F3 cell proliferation model (Cell Titer Glo), EGFR L858R/T790M. The assay is classed as cell-based, murine. Particulars: 72 hours. The procedure, abridged:
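Retrovirally transduced Ba/F3 cells exposed 72 h to compound alone or with 1 μg/mL cetuximab, triplicate points, repeated at least three times. Viability by Cell Titer Glo luminescence (ATP); curves fitted by non-linear sigmoidal dose-response regression.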
Background: In ATP-based viability assays light output follows the ATP content of the culture.

[3] abbreviates: Mus musculus, BaF3, single agent, read-out: Cell IC50 BaF3 EGFR L858R.
Setting [4] is: Mus musculus, BaF3, single agent, read-out: Cell IC50 BaF3 EGFR L858R/T790M.
Where [5] appears, read: in combination with 1 μg/mL cetuximab, read-out: Cell IC50 BaF3 EGFR L858R/T790M (+cetux.).
The mark [6] stands for this setting: in combination with 1 μg/mL cetuximab, read-out: Cell IC50 BaF3 EGFR L858R (+cetux.).

Where a name gives a salt, the structure may show the parent alone. Read-outs that look alike come from different tables or passages of the source.

EGFR L858R, sequence (P00533 25-1210 L858R): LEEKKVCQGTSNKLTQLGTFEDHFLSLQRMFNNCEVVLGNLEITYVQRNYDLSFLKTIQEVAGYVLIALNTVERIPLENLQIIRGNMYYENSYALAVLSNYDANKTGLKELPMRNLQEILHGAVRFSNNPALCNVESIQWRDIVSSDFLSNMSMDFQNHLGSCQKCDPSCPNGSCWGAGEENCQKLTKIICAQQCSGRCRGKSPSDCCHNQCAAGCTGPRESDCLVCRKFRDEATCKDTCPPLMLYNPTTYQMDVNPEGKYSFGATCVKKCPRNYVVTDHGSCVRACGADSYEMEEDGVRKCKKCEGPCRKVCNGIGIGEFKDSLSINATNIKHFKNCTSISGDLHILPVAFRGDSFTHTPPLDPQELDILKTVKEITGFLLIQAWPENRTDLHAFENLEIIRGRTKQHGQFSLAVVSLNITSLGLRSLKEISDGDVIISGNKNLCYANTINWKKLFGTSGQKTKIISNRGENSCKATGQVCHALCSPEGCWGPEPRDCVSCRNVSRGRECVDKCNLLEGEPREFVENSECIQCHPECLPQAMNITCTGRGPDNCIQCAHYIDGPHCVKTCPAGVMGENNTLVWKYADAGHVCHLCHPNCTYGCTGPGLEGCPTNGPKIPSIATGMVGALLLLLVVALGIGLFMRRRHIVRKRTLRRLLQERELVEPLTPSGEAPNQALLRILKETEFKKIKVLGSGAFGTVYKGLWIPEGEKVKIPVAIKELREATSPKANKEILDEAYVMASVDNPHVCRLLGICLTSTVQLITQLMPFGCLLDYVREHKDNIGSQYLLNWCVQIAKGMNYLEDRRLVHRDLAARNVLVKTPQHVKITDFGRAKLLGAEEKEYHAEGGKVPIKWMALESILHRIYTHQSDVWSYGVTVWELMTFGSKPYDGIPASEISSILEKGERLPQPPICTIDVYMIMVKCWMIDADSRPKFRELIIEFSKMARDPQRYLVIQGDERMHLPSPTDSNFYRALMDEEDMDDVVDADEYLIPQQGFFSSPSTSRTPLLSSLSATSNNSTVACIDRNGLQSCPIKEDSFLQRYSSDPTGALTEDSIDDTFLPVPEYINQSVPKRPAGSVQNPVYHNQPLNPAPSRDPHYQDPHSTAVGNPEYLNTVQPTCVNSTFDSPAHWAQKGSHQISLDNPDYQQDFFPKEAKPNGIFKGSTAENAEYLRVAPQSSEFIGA
EGFR L858R/T790M, sequence (P00533 25-1210 T790M/L858R): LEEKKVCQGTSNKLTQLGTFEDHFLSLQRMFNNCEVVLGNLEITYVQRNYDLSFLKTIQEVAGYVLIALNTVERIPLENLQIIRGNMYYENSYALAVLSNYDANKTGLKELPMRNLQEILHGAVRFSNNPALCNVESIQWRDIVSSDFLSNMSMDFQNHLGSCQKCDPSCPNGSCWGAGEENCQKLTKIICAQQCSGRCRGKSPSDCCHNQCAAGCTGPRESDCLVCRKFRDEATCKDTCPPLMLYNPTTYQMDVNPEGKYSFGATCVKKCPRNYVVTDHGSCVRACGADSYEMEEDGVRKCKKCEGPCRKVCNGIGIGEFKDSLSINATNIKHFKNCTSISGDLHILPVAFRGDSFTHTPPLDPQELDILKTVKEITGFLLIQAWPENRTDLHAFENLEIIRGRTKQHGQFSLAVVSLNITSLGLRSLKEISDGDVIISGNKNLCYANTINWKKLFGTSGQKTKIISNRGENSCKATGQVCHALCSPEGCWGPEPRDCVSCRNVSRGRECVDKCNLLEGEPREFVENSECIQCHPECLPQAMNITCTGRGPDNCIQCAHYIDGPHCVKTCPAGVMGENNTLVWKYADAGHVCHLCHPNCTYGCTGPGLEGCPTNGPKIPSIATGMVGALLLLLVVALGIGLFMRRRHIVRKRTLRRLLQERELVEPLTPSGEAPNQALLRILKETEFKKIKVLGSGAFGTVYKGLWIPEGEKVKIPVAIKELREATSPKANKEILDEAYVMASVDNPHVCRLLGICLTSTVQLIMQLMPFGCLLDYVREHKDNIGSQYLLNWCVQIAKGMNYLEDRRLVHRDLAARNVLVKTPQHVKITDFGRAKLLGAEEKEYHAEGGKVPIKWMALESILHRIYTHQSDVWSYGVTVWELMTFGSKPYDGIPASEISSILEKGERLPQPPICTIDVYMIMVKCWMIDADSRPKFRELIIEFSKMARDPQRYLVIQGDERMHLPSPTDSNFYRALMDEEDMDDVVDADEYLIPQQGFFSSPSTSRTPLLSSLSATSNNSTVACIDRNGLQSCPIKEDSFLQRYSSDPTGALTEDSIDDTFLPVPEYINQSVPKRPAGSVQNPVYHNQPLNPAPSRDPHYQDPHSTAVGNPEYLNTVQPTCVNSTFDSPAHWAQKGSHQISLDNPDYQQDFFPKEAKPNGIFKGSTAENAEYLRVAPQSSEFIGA

On to `CN1CCC(c2ccc(-c3ccc4c(=O)n(C(c5nc6ccccc6[nH]5)c5cc(F)ccc5O)ccc4c3)cc2)CC1` (racemic) [Compound 069, Rac-2-(1H-1,3-benzodiazol-2-yl)(5-fluoro-2-hydroxyphenyl)methyl]-6-[4-(1-methylpiperidin-4-yl)phenyl]-1,2-dihydroisoquinolin-1-one], for which the IC50 in assay [1] (setting [3]) is 360 nM; against EGFR L858R/T790M it was 5 nM; at EGFR L858R, 9 nM; in assay [2] (setting [4]), 520 nM; in assay [2] (setting [5]) it was 10 nM.
Take `CN1CCC(c2ccc(-c3cc(F)c4c(=O)n([C@@H](c5nc6ccccc6[nH]5)c5cc(F)ccc5O)ccc4c3)cc2)CC1` (single isomer, unassigned) [Compound 065]: the IC50 in assay [1] (setting [3]) was found to be 130 nM; against EGFR L858R/T790M it was 0.5 nM; at EGFR L858R, 2 nM; in assay [2] (setting [4]), 30 nM.
The matching figures for `CN1CCC(c2ccc(-c3ccc4c(c3)C(=S)N([C@@H](c3nc5ccccc5[nH]3)c3cc(F)ccc3O)C4)cc2)CC1` (single isomer, unassigned) [Compound 083]: 630 nM, 0.6 nM, 1 nM and 200 nM.
Consider `CN1CCC(c2ccc(-c3ccc4ncn(C(c5nc6ccccc6[nH]5)c5cc(F)ccc5O)c(=O)c4c3F)cc2)CC1` (centres unmarked) [Compound 004, 3-((1H-Benzo[d]imidazol-2-yl)(5-fluoro-2-hydroxyphenyl)methyl)-5-fluoro-6-(4-(1-methylpiperidin-4-yl)phenyl)quinazolin-4(3H)-one 2,2,2-trifluoroacetate], for which the IC50 came out at 240 nM in assay [1] (setting [3]); 30 nM in assay [1] (setting [6]); 0.4 nM against EGFR L858R/T790M; 1 nM at EGFR L858R; 90 nM in assay [2] (setting [4]); 10 nM in assay [2] (setting [5]).
Consider `CN1CCC(c2ccc(-c3ccc4ncn(C(c5nc6ccccc6[nH]5)c5cc(F)ccc5O)c(=O)c4c3)cc2)CC1` (centres unmarked) [Compound 006, 3-[1H-Benzimidazol-2-yl-(5-fluoro-2-hydroxy-phenyl)methyl]-6-[4-(1-methyl-4-piperidyl)-phenyl]quinazolin-4-one;hydrochloride], for which the IC50 in assay [1] (setting [3]) was found to be 1100 nM; in assay [1] (setting [6]), 60 nM; against EGFR L858R/T790M, 0.5 nM; against EGFR L858R, 2 nM; in assay [2] (setting [4]), 280 nM; in assay [2] (setting [5]), 5 nM.
In the case of `CN1CCC(c2ccc(-c3ccc4ncn(C(c5nc6ccccc6[nH]5)c5cc(F)ccc5O)c(=O)c4n3)cc2)CC1` (centres unmarked) [Compound 009, 3-((1H-Benzo[d]imidazol-2-yl)(5-fluoro-2-hydroxyphenyl)methyl)-6-(4-(1-methylpiperidin-4-yl)phenyl)pyrido[3,2-d]pyrimidin-4(3H)-one 2,2,2-trifluoroacetate], the IC50 in assay [1] (setting [3]) was 3890 nM; in assay [1] (setting [6]) it was 180 nM; on EGFR L858R/T790M, 0.4 nM; at EGFR L858R, 3 nM; in assay [2] (setting [4]), 940 nM; in assay [2] (setting [5]), 20 nM.
For `CN1CCC(c2ccc(-c3ccc4c(c3)C(=O)N(C(c3nc5cccnc5[nH]3)c3cc(F)ccc3O)C4)cc2)CC1` (centres unmarked) [Compound 014, 2-[(5-Fluoro-2-hydroxy-phenyl)-(3H-imidazo[4,5-b]pyridin-2-yl)methyl]-6-[4-(1-methyl-4-piperidyl)phenyl]isoindolin-1-one; hydrochloride], the IC50 in assay [1] (setting [3]) was determined as 810 nM; in assay [1] (setting [6]), 60 nM; against EGFR L858R/T790M, 0.3 nM; against EGFR L858R, 2 nM; in assay [2] (setting [4]) it was 710 nM; in assay [2] (setting [5]) it was 10 nM.
For the compound `CN1CCC(c2ccc(-c3ccc4c(c3)C(=O)N([C@@H](c3nc5ccccc5[nH]3)c3cc(F)ccc3O)C4)cc2)CC1` [Compound 022, 2-[(R)-1H-benzimidazol-2-yl-(5-fluoro-2-hydroxy-phenyl)methyl]-6-[4-(1-methyl-4-piperidyl)phenyl]isoindolin-1-one], the IC50 in assay [1] (setting [6]) was determined as 40 nM; in assay [1] (single agent, read-out: Cell IC50 BaF3 EGFR L858R), 640 nM; against EGFR L858R/T790M, 0.1 nM; on EGFR L858R, 0.3 nM; in assay [2] (setting [5]), 5 nM; in assay [2] (single agent, read-out: Cell IC50 BaF3 EGFR L858R/T790M), 380 nM.
For the compound `CN1CCC(c2ccc(-c3ccc4c(c3)C(=O)N(C(c3nc5ccccc5[nH]3)c3cc(F)ccc3O)C4)cc2)CC1` (centres unmarked) [Compound 024, 2-[1H-Benzimidazol-2-yl-(5-fluoro-2-hydroxy-phenyl)methyl]-6-[4-(1-methyl-4-piperidyl)phenyl]isoindolin-1-one; hydrochloride], the IC50 came to 1180 nM in assay [1] (setting [3]); 60 nM in assay [1] (setting [6]); 0.5 nM on EGFR L858R/T790M; 2 nM against EGFR L858R; 440 nM in assay [2] (setting [4]); 7 nM in assay [2] (setting [5]).
Turning to `CN1CCC(c2ccc(-c3ccc4cn(C(c5nc6ccccc6[nH]5)c5cc(F)ccc5O)nc4c3F)cc2)CC1` (centres unmarked) [Compound 034, 2-[1H-benzimidazol-2-yl-[7-fluoro-6-[4-(1-methyl-4-piperidyl)phenyl]indazol-2-yl]methyl]-4-fluoro-phenol;hydrochloride], the IC50 in assay [1] (setting [3]) came to 1430 nM; in assay [1] (setting [6]), 60 nM; against EGFR L858R/T790M, 0.7 nM; against EGFR L858R it was 4 nM; in assay [2] (setting [4]), 420 nM; in assay [2] (setting [5]) it was 5 nM.
On to `CN1CCC(c2ccc(-c3ccc4ccn(C(c5nc6ccccc6[nH]5)c5cc(F)ccc5O)c(=O)c4c3)cc2)CC1` (centres unmarked) [Compound 063, 2-[1H-benzimidazol-2-yl-(5-fluoro-2-hydroxy-phenyl)methyl]-7-[4-(1-methyl-4-piperidyl)phenyl]isoquinolin-1-one], for which the IC50 in assay [1] (setting [3]) was determined as 1050 nM; against EGFR L858R/T790M, 2 nM; at EGFR L858R it was 9 nM; in assay [2] (setting [4]), 890 nM; in assay [2] (setting [5]), 50 nM.
In the same order, the values of `CN1CCC(c2ccc(-c3cc(F)c4c(=O)n(C(c5ccccc5)c5nc6ccccc6[nH]5)ccc4c3)cc2)CC1` (centres unmarked) [Compound 064, 2-[1H-benzimidazol-2-yl(phenyl)methyl]-8-fluoro-6-[4-(1-methyl-4-piperidyl)phenyl]-isoquinolin-1-one; dihydrochloride] are 670 nM, 20 nM, 31 nM, 220 nM and 20 nM.
Take `CN1CCC(c2ccc(-c3cc(F)c4c(=O)n(C(c5nc6ccccc6[nH]5)c5cc(F)ccc5O)ccc4c3)cc2)CC1` (centres unmarked) [Compound 070, 2-[1H-benzimidazol-2-yl-(5-fluoro-2-hydroxy-phenyl)methyl]-8-fluoro-6-[4-(1-methyl-4-piperidyl)phenyl]isoquinolin-1-one]: the IC50 is 160 nM in assay [1] (setting [3]); 1 nM against EGFR L858R/T790M; 4 nM on EGFR L858R; 70 nM in assay [2] (setting [4]); 5 nM in assay [2] (setting [5]).
In the same order, the values of `CN1CCC(c2ccc(-c3ccc4ccn(C(c5ccccc5)c5nc6ccccc6[nH]5)c(=O)c4c3F)cc2)CC1` (centres unmarked) [Compound 071] are 1210 nM, 20 nM, over 100 nM, 1380 nM and 330 nM.
`CN1CCC(c2ccc(-c3cc4ccn(C(c5nc6ccccc6[nH]5)c5cc(F)ccc5O)c(=O)c4cc3F)cc2)CC1` (centres unmarked) [Compound 073, 2-[1H-benzimidazol-2-yl-(5-fluoro-2-hydroxy-phenyl)methyl]-7-fluoro-6-[4-(1-methyl-4-piperidy)phenyl]-isoquinolin-1-one]: the IC50 amounted to 930 nM in assay [1] (setting [3]); 14 nM against EGFR L858R/T790M; 21 nM at EGFR L858R; 580 nM in assay [2] (setting [4]); 20 nM in assay [2] (setting [5]).
